According to patent US6410792B1, “Amide derivatives and methods for using the same as selective neuropeptide Y receptor antagonists” (Bayer Corporation, priority 1997, dated 2002):
Where a name gives a salt, the structure may show the parent alone. Read-outs that look alike come from different tables or passages of the source.

Key:
Human NPY1 receptor = molecular target: T1, Human NPY1 receptor (Homo sapiens, UniProt P25929); test: Human NPY1 receptor binding assay ([125I]PYY, SK-N-MC cells); conditions: [125I]PYY, SK-N-MC cells; read-out: hNPYI IC50
T1 construct: host or cells: SK-N-MC cells
T1 sequence (P25929 1-384): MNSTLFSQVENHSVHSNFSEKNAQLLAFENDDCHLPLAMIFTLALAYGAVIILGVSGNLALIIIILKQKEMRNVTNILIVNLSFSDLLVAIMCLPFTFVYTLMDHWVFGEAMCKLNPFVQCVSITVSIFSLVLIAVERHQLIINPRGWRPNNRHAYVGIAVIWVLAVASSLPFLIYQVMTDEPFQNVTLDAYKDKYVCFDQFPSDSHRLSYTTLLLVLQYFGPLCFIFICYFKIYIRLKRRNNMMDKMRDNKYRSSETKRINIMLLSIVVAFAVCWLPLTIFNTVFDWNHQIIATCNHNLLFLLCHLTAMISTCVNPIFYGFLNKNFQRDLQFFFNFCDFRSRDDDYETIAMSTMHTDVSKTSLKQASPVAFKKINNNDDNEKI
Procedure, shortened: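 Confluent SK-N-MC cells preincubated 30 min at room temperature in serum-free DMEM/25 mM HEPES pH 7.3 with BSA, bacitracin and PMSF, then incubated 3 h at room temperature with compound and ~50 pM [125I]PYY. Nonspecific binding defined with 1 μM NPY; bound radioactivity counted after Triton X-100 lysis.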

Y2 receptor = molecular target: T2, Y2 receptor (Homo sapiens, UniProt P49146); test: Y2 receptor binding assay ([125I]PYY, membrane protein); conditions: [125I]PYY, membrane protein; read-out: hNPY2 IC50
T2 sequence (P49146 1-381): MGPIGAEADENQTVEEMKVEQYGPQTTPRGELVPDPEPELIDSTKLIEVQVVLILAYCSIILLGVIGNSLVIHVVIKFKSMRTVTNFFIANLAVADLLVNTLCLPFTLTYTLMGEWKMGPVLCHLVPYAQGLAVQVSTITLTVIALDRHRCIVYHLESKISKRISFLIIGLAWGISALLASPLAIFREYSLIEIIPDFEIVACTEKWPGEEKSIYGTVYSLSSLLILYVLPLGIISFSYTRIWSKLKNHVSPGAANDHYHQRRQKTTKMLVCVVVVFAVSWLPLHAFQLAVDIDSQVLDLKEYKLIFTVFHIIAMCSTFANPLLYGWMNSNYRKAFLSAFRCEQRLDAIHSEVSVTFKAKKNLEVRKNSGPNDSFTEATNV
Procedure, shortened: (§1)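 Filtration binding with membrane protein and drug dilution, 2 h at room temperature with mixing, radioactivity counted by gamma or scintillation. Y2: 25 pM [125I]PYY in Krebs-Ringer bicarbonate pH 7.4 with 0.01% BSA, nonspecific by 1 μM NPY. Y4/PP1: 50 pM [125I]hPP in HEPES-buffered saline pH 7.4 with protease inhibitors and 0.3% BSA, nonspecific by 1 μM hPP.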

human Y4/PP1 receptor = human Y4/PP1 receptor (Homo sapiens, UniProt P50391); test: Human Y4/PP1 receptor binding assay ([125I]human PP, membrane protein); conditions: [125I]human PP, membrane protein; read-out: hNPY4 IC50
Procedure, shortened: as §1

Human NPY5 receptor = molecular target: T3, Human NPY5 receptor (Homo sapiens, UniProt Q15761); test: Human NPY5 receptor binding assay ([125I]PYY, membrane protein)
T3 sequence (Q15761 1-445): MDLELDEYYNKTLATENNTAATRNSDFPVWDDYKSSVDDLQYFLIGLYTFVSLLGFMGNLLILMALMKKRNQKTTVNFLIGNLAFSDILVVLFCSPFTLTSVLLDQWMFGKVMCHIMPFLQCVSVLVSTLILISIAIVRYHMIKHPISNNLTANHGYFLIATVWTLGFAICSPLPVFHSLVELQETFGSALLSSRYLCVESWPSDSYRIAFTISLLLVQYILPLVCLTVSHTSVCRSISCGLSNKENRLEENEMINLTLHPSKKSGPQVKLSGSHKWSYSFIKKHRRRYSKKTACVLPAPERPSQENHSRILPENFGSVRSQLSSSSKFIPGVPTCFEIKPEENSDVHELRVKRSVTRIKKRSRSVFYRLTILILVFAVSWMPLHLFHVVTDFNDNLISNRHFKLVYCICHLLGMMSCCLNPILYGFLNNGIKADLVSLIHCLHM
Procedure, shortened: (§2)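 First, membrane protein, drug dilution and 75-100 pM [125I]PYY were combined in pH 7.4 Tris saline buffer containing divalent cations and 0.1% BSA. Next, samples were mixed 2 hours at room temperature. Finally, samples were filtered, washed ice-cold and counted; 1 μM PYY gave nonspecific binding.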

Rat NPY5 receptor [1] = molecular target: T4, Rat NPY5 receptor (Rattus norvegicus, UniProt Q63634); test: Rat NPY5 receptor binding assay ([125I]PYY, membrane protein)
T4 sequence (Q63634 1-445): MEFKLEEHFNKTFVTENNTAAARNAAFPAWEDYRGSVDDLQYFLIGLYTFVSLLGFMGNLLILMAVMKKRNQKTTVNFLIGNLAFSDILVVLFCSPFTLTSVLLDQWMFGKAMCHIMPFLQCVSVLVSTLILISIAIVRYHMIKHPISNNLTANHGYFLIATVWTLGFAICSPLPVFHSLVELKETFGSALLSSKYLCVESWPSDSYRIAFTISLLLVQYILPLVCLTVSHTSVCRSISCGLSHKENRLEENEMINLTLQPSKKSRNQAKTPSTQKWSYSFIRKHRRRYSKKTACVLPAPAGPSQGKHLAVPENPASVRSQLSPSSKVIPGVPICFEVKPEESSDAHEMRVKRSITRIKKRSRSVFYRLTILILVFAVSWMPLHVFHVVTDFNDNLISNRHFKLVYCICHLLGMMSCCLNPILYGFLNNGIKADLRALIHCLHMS
Procedure, shortened: as §2

Rat NPY5 receptor [2] = molecular target: T4, Rat NPY5 receptor; test: Rat NPY5 cyclase assay (in vitro functional assay, forskolin-stimulated adenylate cyclase, cAMP); assay type: cell-based; conditions: 10 μM, percentage of forskolin-stimulated adenylate cyclase; for activity at 10 µM: 20 min, read-out: rNPY5 % FSAC (10 μM)
Protocol: D. Rat NYP5 Cyclase Assay (In Vitro Functional Assay)
Cells stably expressing the rat NPY5 receptor are resuspended in serum-free DMEM containing 10 mM HEPES (pH 7.4) and 1 mM isobutylmethylxanthine (IBMX). […] forskolin and drug dilution are then added to the cells. After a 20 minute incubation of the samples at 37° C, the assay is stopped by placing the samples in boiling water for 3 minutes. The cAMP produced in each sample is quantitated with a radioimmunoassay kit (NEN DuPont). Data are expressed as a percentage of forskolin-stimulated adenylate cyclase.

[3] = [125I]PYY, read-out: hNPY5 IC50
[4] = [125I]PYY, read-out: rNPY5 IC50

Sequence of human Y4/PP1 receptor (P50391 whole entry): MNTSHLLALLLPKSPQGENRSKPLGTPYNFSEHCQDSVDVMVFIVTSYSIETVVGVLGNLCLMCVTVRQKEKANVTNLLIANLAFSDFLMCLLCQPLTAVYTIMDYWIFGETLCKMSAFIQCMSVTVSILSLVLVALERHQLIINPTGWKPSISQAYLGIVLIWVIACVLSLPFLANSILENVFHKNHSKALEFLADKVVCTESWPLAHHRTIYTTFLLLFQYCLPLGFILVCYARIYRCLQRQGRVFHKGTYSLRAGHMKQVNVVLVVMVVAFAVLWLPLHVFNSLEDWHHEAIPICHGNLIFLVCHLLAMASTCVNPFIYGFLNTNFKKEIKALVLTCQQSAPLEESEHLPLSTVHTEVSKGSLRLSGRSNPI

IC50 (Human NPY1 receptor) [µM]	IC50 (Y2 receptor) [µM]	IC50 (human Y4/PP1 receptor) [µM]	IC50 (Human NPY5 receptor; [3]) [µM]	IC50 (Rat NPY5 receptor [1]; [4]) [µM]	activity at 10 µM (Rat NPY5 receptor [2]) [%]	SMILES	IC50 (Human NPY5 receptor; hNPY5 IC50, [125I]PYY) [µM]	IC50 (Rat NPY5 receptor [1]; rNPY5 IC50, [125I]PYY) [µM]	rNPY5 % FSAC (10 μM) (Rat NPY5 receptor [2]) [%]
> 5	> 5	> 5	0.048	0.043	98	O=C(CN1CCCC1C(O)(c1ccccc1)c1ccccc1)Nc1ccc(C2CCCCC2)cc1 (stereo not drawn) [Compound 296, N-(4-Cyclohexyl-phenyl)-2-[2-(hydroxy-diphenyl-methyl)-pyrrolidin-1-yl]-acetamide; compound with oxalic acid]			
> 5	> 5	> 5	0.032	0.045	103	NC(=O)C1CCCN1CC(=O)Nc1ccc(C2CCCCC2)cc1 (stereo not drawn) [Compound 297, 1-[(4-Cyclohexyl-phenylcarbamoyl)-methyl]-pyrrolidin-2-carboxylic acid amide; hydrochloride]			
> 5	> 5	> 5	0.13	0.1	110	O=C(CN1CCC(O)(Cc2ccccc2)CC1)Nc1ccc(C2CCCCC2)cc1 [Compound 314, 2-(4-Benzyl-4-hydroxy-piperidin-1-yl)-N-(4-cyclohexyl-phenyl)-acetamide; hydrochloride]			
> 5	> 5	> 5	0.44	0.26	99	CCc1cc(Br)c(NC(=O)CN2CCC(n3c(=O)[nH]c4ccccc43)CC2)c(Br)c1 [Compound 330, N-(2,6-Dibromo-4-ethyl-phenyl)-2-[4-(2-oxo-2,3-dihydrobenzoimidazol-1-yl)-piperidin-1-yl]-acetamide, reference compound]			
> 5	> 5	> 5	0.276	0.37	105	O=C(CN1CCC(n2c(=O)[nH]c3ccccc32)CC1)Nc1ccc(Br)c(Cl)c1 [Compound 342, N-(4-Bromo-3-chloro-phenyl)-2-[4-(2-oxo-2,3-dihydro-benzoimidazol-1-yl)-piperidin-1-yl]-acetamide, reference compound]			
> 5	> 5	> 5	2.9	3.3	93	O=C(CN1CCC(n2c(=O)[nH]c3ccccc32)CC1)Nc1ccc(O)cc1 [Compound 345, N-(4-Hydroxy-phenyl)-2-[4-(2-oxo-2,3-dihydro-benzoimidazol-1-yl)-piperidin-1-yl]-acetamide, reference compound]			
> 5	> 5	> 5	0.081	0.063	105	CCOc1ccc(NC(=O)CN2CCC(n3c(=O)[nH]c4ccccc43)CC2)c2ccccc12 [Compound 346, N-(4-Ethoxy-naphthalen-1-yl)-2-[4-(2-oxo-2,3-dihydro-benzoimidazol-1-yl)-piperidin-1-yl]-acetamide, reference compound]			
> 5	> 5	> 5	0.138	0.165	100	O=C(CN1CCC(n2c(=O)[nH]c3ccccc32)CC1)Nc1ccc(N=Nc2ccccc2)cc1 [Compound 349, 2-[4-(2-Oxo-2,3-dihydro-benzoimidazol-1-yl)-piperidin-1-yl]-N-(4-phenylazo-phenyl)-acetamide, reference compound]			
> 5	> 5	> 5	0.053	0.0628	90	O=C(CN1CCC(n2c(=O)[nH]c3ccccc32)CC1)Nc1ccc(Oc2ccccc2)cc1 [Compound 352, 2-[4-(2-Oxo-2,3-dihydro-benzoimidazol-1-yl)-piperidin-1-yl]-N-(4-phenoxy-phenyl)-acetamide, reference compound]			
> 5	> 5	> 5	0.143	0.136	98	CC(=O)c1ccc(NC(=O)CN2CCC(n3c(=O)[nH]c4ccccc43)CC2)cc1 [Compound 354, N-(4-Acetyl-phenyl)-2-[4-(2-oxo-2,3-dihydro-benzoimidazol-1-yl)-piperidin-1-yl]-acetamide, reference compound]			
> 5	> 5	> 5	0.259	0.271	105	O=C(CN1CCC(n2c(=O)[nH]c3ccccc32)CC1)Nc1ccc(C(F)(F)F)cc1 [Compound 356, 2-[4-(2-Oxo-2,3-dihydro-benzoimidazol-1-yl)-piperidin-1-yl]-N-(4-trifluoromethyl-phenyl)-acetamide, reference compound]			

SMILES	IC50 (Human NPY1 receptor) [µM]	IC50 (Y2 receptor) [µM]	IC50 (human Y4/PP1 receptor) [µM]	IC50 (Human NPY5 receptor; [3]) [µM]	IC50 (Rat NPY5 receptor [1]; [4]) [µM]	activity at 10 µM (Rat NPY5 receptor [2]) [%]	IC50 (Human NPY5 receptor; hNPY5 IC50, [125I]PYY) [µM]	IC50 (Rat NPY5 receptor [1]; rNPY5 IC50, [125I]PYY) [µM]	rNPY5 % FSAC (10 μM) (Rat NPY5 receptor [2]) [%]
Cc1ccc(C2(O)CCN(CC(=O)Nc3ccc(C4CCCCC4)cc3)CC2)cc1 [Compound 298, N-(4-Cyclohexyl-phenyl)-2-(4-hydroxy-4-p-tolyl-piperidin-1-yl)-acetamide; hydrochloride]	> 5	> 5	> 5			103	0.03	0.044	
O=C(CN1CCN(c2ccccc2Cl)CC1)Nc1ccc(C2CCCCC2)cc1.O=C(O)C(=O)O [Compound 299]	> 5	> 5	> 5	0.14	0.16				103
O=C(CN1CCC(n2c(=O)[nH]c3ccccc32)CC1)Nc1ccc([N+](=O)[O-])c(Cl)c1 [Compound 357, N-(3-Chloro-4-nitro-phenyl)-2-[4-(2-oxo-2,3-dihydro-benzoimidazol-1-yl)-piperidin-1-yl]-acetamide, reference compound]	> 5	> 5	> 5	0.239	0.229	112			
